From patent US20250320206A1, “STAT6 DEGRADERS” (Gilead Sciences, Inc., priority 2024, published 2025) come the findings set out here.

Test [1] has as its system Eotaxin-3 release in human whole blood stimulated with IL-4. Put plainly: Human Whole Blood Eotaxin-3 Assay (IL-4 stimulated eotaxin-3 release). To be noted: IL-4 stimulation, 48 h, values given for compounds with >80% Emax, geometric mean. The test is classed as cell-based. The procedure, abridged: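 Lithium-heparin human whole blood preincubated 2 h at 37° C with 4-fold serially diluted compounds (0.5% DMSO), then stimulated with recombinant human IL-4 ([…]) for 48 h. Eotaxin-3 (CCL26) in supernatant quantified by MSD immunoassay.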

Test [2] concerns the target T1, STAT6 (Homo sapiens, UniProt P42226).
T1 construct: These cells express endogenous STAT6; host or cells: HeLa LgBiT clone 4.14
T1 sequence (P42226 1-847): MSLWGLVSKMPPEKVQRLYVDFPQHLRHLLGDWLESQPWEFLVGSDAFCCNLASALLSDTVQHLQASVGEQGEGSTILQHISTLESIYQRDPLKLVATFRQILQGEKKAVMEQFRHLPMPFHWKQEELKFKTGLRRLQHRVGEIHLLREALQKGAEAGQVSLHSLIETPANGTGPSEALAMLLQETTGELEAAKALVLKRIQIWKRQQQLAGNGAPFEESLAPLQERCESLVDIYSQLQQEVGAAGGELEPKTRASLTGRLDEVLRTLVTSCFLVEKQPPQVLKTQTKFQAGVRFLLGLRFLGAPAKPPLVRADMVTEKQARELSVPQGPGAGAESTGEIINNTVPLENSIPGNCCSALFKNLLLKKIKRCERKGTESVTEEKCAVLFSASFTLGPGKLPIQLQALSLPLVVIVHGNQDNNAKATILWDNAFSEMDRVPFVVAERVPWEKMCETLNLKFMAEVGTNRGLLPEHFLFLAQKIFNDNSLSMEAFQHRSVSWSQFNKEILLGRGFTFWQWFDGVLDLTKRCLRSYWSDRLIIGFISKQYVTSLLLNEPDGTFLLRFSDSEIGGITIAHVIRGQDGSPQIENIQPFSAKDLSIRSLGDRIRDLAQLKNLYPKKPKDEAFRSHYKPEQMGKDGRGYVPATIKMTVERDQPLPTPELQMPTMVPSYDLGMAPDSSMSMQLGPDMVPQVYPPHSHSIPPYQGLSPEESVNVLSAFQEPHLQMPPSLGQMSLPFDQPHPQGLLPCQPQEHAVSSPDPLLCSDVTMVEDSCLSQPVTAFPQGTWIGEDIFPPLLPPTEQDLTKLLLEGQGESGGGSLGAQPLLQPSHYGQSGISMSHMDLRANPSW
Briefly: Stat6 Degrader Assay (HiBiT based, HeLa LgBiT clone 4.14). The test is classed as cell-based. As to conditions: HeLa LgBiT clone 4.14 HiBiT-STAT6, 4-24 h incubation; values given for compounds with >80% Emax; geometric mean; read-out: STAT6 degradation DC50. The procedure, abridged:
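HeLa LgBiT clone 4.14 cells with CRISPR HiBiT-tagged endogenous STAT6, 5000 cells/well, compound dosed then incubated 4-24 h at 37° C, 5% CO2. Nano-Glo substrate added, 0.5 h, luminescence read as non-degraded STAT6. Terfenadine 50 μM (cell kill) defines 100% degradation.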
On the technique in general: HiBiT is a short tag that completes a luciferase, so light tracks the accessible tagged protein.

As a reminder, the pEC50 is the negative decadic logarithm of the EC50, by convention in mol/L. A lower pEC50 goes with a large EC50. As a reminder, the DC50 is the midpoint of the concentration-degradation curve.

Molecules are shown by their SMILES. pEC50: −log10 of the molar value.

As to `CNc1ccn(-c2ccnc3c2cc(CN2CCC(c4c(F)cc(C(=O)N5CCC(CN6CCN(c7ccc8c(c7)C7(CC7)C(=O)N8C7CCC(=O)NC7=O)CC6)CC5)cc4F)CC2)n3C)c(=O)c1` (stereo not shown) [Example 3u149, 3-(5′-(4-((1-(3,5-difluoro-4-(1-((1-methyl-4-(4-(methylamino)-2-oxopyridin-1 (2H)-yl)-1H-pyrrolo[2,3-b]pyridin-2-yl)methyl)piperidin-4-yl)benzoyl)piperidin-4-yl)methyl)piperazin-1-yl)-2′-oxospiro[cyclopropane-1,3′-indolin]-1′-yl)piperidine-2,6-dione], the pEC50 in test [1] was 7.56. The half-maximal degradation concentration (DC50) in test [2] was determined as 33.8 nM.

`CNc1cc(=O)n(-c2ccnc3c2cc([C@H](C)N2CC=C(c4c(C)cc(C(=O)N5CCC(CN6CCN(Cc7cc8c(cc7F)N(C7CCC(=O)NC7=O)C(=O)C87CC7)CC6)CC5)cc4F)CC2)n3C)cc1F` (stereo partly drawn) [Example 3u152, 3-(6′-fluoro-5′-((4-((1-(3-fluoro-4-(1-((S)-1-(4-(5-fluoro-4-(methylamino)-2-oxopyridin-1 (2H)-yl)-1-methyl-1H-pyrrolo[2,3-b]pyridin-2-yl)ethyl)-1,2,3,6-tetrahydropyridin-4-yl)-5-methylbenzoyl)piperidin-4-yl)methyl)piperazin-1-yl)methyl)-2′-oxospiro[cyclopropane-1,3′-indolin]-1′-yl)piperidine-2,6-dione] had a negative logarithm of the EC50 (pEC50) in test [1] of 7.88. Also, in test [2], the half-maximal degradation concentration (DC50) was 6.6 nM.

In test [1], `CNc1ccn(-c2ccnc3c2cc([C@H](C)N2CC=C(c4c(C)cc(C(=O)N5CCC(CN6CCN(Cc7ccc8c(c7)n(C)c(=O)n8C7CCC(=O)NC7=O)CC6)CC5)cc4F)CC2)n3C)c(=O)c1` (stereo partly drawn) [Example 3u155, 3-(5-((4-((1-(3-fluoro-5-methyl-4-(1-((S)-1-(1-methyl-4-(4-(methylamino)-2-oxopyridin-1 (2H)-yl)-1H-pyrrolo[2,3-b]pyridin-2-yl)ethyl)-1,2,3,6-tetrahydropyridin-4-yl)benzoyl)piperidin-4-yl)methyl)piperazin-1-yl)methyl)-3-methyl-2-oxo-2,3-dihydro-1H-benzo[d]imidazol-1-yl)piperidine-2,6-dione] gave a pEC50 of 9.30. Also, the half-maximal degradation concentration (DC50) in test [2] was 0.3 nM.

Regarding `CNc1cc(=O)n(-c2ccnc3c2cc([C@H](C)N2CC=C(c4c(C)cc(C(=O)N5CCC(CN6CCN(Cc7ccc8c(c7)C7(CC7)C(=O)N8C7CCC(=O)NC7=O)C[C@@H]6C)CC5)cc4F)CC2)n3C)cc1F` (stereo partly drawn) [Example 3u164, 3-(5′-(((S)-4-((1-(3-fluoro-4-(1-((S)-1-(4-(5-fluoro-4-(methylamino)-2-oxopyridin-1 (2H)-yl)-1-methyl-1H-pyrrolo[2,3-b]pyridin-2-yl)ethyl)-1,2,3,6-tetrahydropyridin-4-yl)-5-methyl-benzoyl)piperidin-4-yl)methyl)-3-methylpiperazin-1-yl)methyl)-2′-oxospiro[cyclopropane-1,3′-indolin]-1′-yl)piperidine-2,6-dione], in test [1], the pEC50 was 8.70. In addition, the DC50 in test [2] was determined as 1 nM.

In test [1], `CNc1ccn(-c2ccnc3c2cc([C@H](C)N2CC=C(c4c(C)cc(C(=O)N5CCC(CN6CCN(Cc7cc8c(cc7F)n(C7CCC(=O)NC7=O)c(=O)n8C7CC7)C[C@@H]6C)CC5)cc4F)CC2)n3C)c(=O)c1` (stereo partly drawn) [Example 3u166, 3-(3-cyclopropyl-6-fluoro-5-(((S)-4-((1-(3-fluoro-5-methyl-4-(1-((S)-1-(1-methyl-4-(4-(methylamino)-2-oxopyridin-1 (2H)-yl)-1H-pyrrolo[2,3-b]pyridin-2-yl)ethyl)-1,2,3,6-tetrahydropyridin-4-yl)benzoyl)piperidin-4-yl)methyl)-3-methylpiperazin-1-yl)methyl)-2-oxo-2,3-dihydro-1H-benzo[d]imidazol-1-yl)piperidine-2,6-dione] had a pEC50 of 8.89. For the same compound, the 50% degradation concentration (DC50) in test [2] is 1.1 nM.

On to `Cc1cc(C(=O)N2CCC(CN3CCN(Cc4ccc5c(c4)C(C)(C)C(=O)N5C4CCC(=O)NC4=O)C[C@@H]3C)CC2)cc(F)c1C1=CCN([C@@H](C)c2cc3c(-n4cc(F)c(N)cc4=O)ccnc3n2C)CC1` (stereo partly drawn) [Example 3u169, 3-(5-(((S)-4-((1-(4-(1-((S)-1-(4-(4-amino-5-fluoro-2-oxopyridin-1 (2H)-yl)-1-methyl-1H-pyrrolo[2,3-b]pyridin-2-yl)ethyl)-1,2,3,6-tetrahydropyridin-4-yl)-3-fluoro-5-methylbenzoyl)piperidin-4-yl)methyl)-3-methylpiperazin-1-yl)methyl)-3,3-dimethyl-2-oxoindolin-1-yl)piperidine-2,6-dione], for which the negative-log EC50 (pEC50) in test [1] was 7.84. The DC50 in test [2] was determined as 4.1 nM.

In test [1], `CNc1cc(=O)n(-c2ccnc3c2cc([C@H](C)N2CC=C(c4c(C)cc(C(=O)N5CCC(CN6CCN(Cc7ccc8c(c7)C(C)(C)C(=O)N8C7CCC(=O)NC7=O)C[C@@H]6C)CC5)cc4F)CC2)n3C)cc1F` (stereo partly drawn) [Example 3u172, 3-(5-(((S)-4-((1-(3-fluoro-4-(1-((S)-1-(4-(5-fluoro-4-(methylamino)-2-oxopyridin-1 (2H)-yl)-1-methyl-1H-pyrrolo[2,3-b]pyridin-2-yl)ethyl)-1,2,3,6-tetrahydropyridin-4-yl)-5-methylbenzoyl)piperidin-4-yl)methyl)-3-methylpiperazin-1-yl)methyl)-3,3-dimethyl-2-oxoindolin-1-yl)piperidine-2,6-dione] showed a pEC50 of 7.88. In addition, in test [2], the DC50 was 2.9 nM.

In turn, `CNc1ccn(-c2ccnc3c2cc([C@H](C)N2CC=C(c4c(C)cc(C(=O)N5CCC(CN6CCN(Cc7ccc8c(c7)C(C)(C)C(=O)N8C7CCC(=O)NC7=O)C[C@@H]6C)CC5)cc4F)CC2)n3C)c(=O)c1` (stereo partly drawn) [Example 3u175, 3-(5-(((S)-4-((1-(3-fluoro-5-methyl-4-(1-((S)-1-(1-methyl-4-(4-(methylamino)-2-oxopyridin-1 (2H)-yl)-1H-pyrrolo[2,3-b]pyridin-2-yl)ethyl)-1,2,3,6-tetrahydropyridin-4-yl)benzoyl)-piperidin-4-yl)methyl)-3-methylpiperazin-1-yl)methyl)-3,3-dimethyl-2-oxoindolin-1-yl)piperidine-2,6-dione] had a negative logarithm of the EC50 (pEC50) in test [1] of 8.42. In test [2], the 50% degradation concentration (DC50) was 1.3 nM.

Consider `CNc1ccn(-c2ccnc3c2cc(CN2CC=C(c4c(C)cc(C(=O)N5CCC(CN6CCN(Cc7ccc8c(c7)C(C)(C)C(=O)N8C7CCC(=O)NC7=O)C[C@@H]6C)CC5)cc4F)CC2)n3C)c(=O)c1` (stereo partly drawn) [Example 3u178, 3-(5-(((S)-4-((1-(3-fluoro-5-methyl-4-(1-((1-methyl-4-(4-(methylamino)-2-oxopyridin-1 (2H)-yl)-1H-pyrrolo[2,3-b]pyridin-2-yl)methyl)-1,2,3,6-tetrahydropyridin-4-yl)benzoyl)piperidin-4-yl)methyl)-3-methylpiperazin-1-yl)methyl)-3,3-dimethyl-2-oxoindolin-1-yl)piperidine-2,6-dione], for which the pEC50 in test [1] was 8.11. The DC50 in test [2] is 5.6 nM.

Compound `CNc1ccn(-c2ccnc3c2cc([C@H](C)N2CC=C(c4c(C)cc(C(=O)N5CCC(CN6CCN(Cc7cc8c(cc7F)N(C7CCC(=O)NC7=O)C(=O)C8(C)C)C[C@@H]6C)CC5)cc4F)CC2)n3C)c(=O)c1` (stereo partly drawn) [Example 3u181, 3-(6-fluoro-5-(((S)-4-((1-(3-fluoro-5-methyl-4-(1-((S)-1-(1-methyl-4-(4-(methyl-amino)-2-oxopyridin-1 (2H)-yl)-1H-pyrrolo[2,3-b]pyridin-2-yl)ethyl)-1,2,3,6-tetrahydropyridin-4-yl)-benzoyl)piperidin-4-yl)methyl)-3-methylpiperazin-1-yl)methyl)-3,3-dimethyl-2-oxoindolin-1-yl)-piperidine-2,6-dione] showed a pEC50 in test [1] of 7.79. Besides, the DC50 in test [2] was 3.4 nM.

Regarding `C[C@H]1CN(Cc2ccc3c(c2)C(C)(C)C(=O)N3C2CCC(=O)NC2=O)CCN1CC1CCN(C(=O)c2ccc(C3CCN([C@@H](C)c4cc5c(-n6ccc7c(c6=O)CCN7)ccnc5n4C)CC3)cc2)CC1` (stereo partly drawn) [Example 3u184, 3-(3,3-dimethyl-5-(((S)-3-methyl-4-((1-(4-(1-((S)-1-(1-methyl-4-(4-oxo-1,2,3,4-tetrahydro-5H-pyrrolo[3,2-c]pyridin-5-yl)-1H-pyrrolo[2,3-b]pyridin-2-yl)ethyl)piperidin-4-yl)benzoyl)-piperidin-4-yl)methyl)piperazin-1-yl)methyl)-2-oxoindolin-1-yl)piperidine-2,6-dione], in test [1], the pEC50 is 8.15. In addition, the half-maximal degradation concentration (DC50) in test [2] came out at 2.4 nM.
